Experimental data reported in patent US9376442B2, “Methylpyrrolopyrimidinecarboxamides” (Takeda GmbH, priority 2009, dated 2016).

Target: T1, PDE5A1 (Homo sapiens, UniProt O76074)
T1 construct: from tissue; host or cells: human platelets from fresh donor blood (10,000 x g supernatant of sonicated lysate)
Experiment: Inhibition of type 5 phosphodiesterase (PDE5) activity, modified SPA test with human platelet lysate
Format: biochemical
Conditions: 0.5 μM cGMP, read-out: PDE5A1 inhibitory values [measured as −log IC50 (mol/l)] (converted)
Procedure, shortened: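 Scintillation proximity assay with [3H]cGMP tracer at 0.5 μM total cGMP, stopped after 15 min with beads containing IBMX. PDE3 and PDE2 activities suppressed with motapizone (1 μM) and a PDE2 inhibitor (10 nM). Human platelet supernatant served as the enzyme, with compound preincubated 5 min at 37° C; IC50 values from concentration-effect curves.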

Row | IC50 | Structure (SMILES)
1 | 1 to 10 nM | Cc1[nH]c2c(-c3cc(F)ccc3OCC3CC3)ncnc2c1C(=O)N[C@@H]1CCN(C(=O)[C@H](C)O)C1 [Example F29, 4-[2-(Cyclopropylmethoxy)-5-fluorophenyl]-N-{(3R)-1-[(2S)-2-hydroxypropanoyl]pyrrolidin-3-yl}-6-methyl-5H-pyrrolo[3,2-d]pyrimidine-7-carboxamide]
2 | < 1 nM | COc1ccc(-c2ncnc3c(C(=O)N[C@@H]4CCN(C(=O)[C@H](C)O)C4)c(C)[nH]c23)c(OCC2CC2)c1 [Example F38, 4-[2-(Cyclopropylmethoxy)-4-methoxyphenyl]-N-{(3R)-1-[(2S)-2-hydroxypropanoyl]pyrrolidin-3-yl}-6-methyl-5H-pyrrolo[3,2-d]pyrimidine-7-carboxamide]
3 | < 1 nM | Cc1[nH]c2c(-c3c(OCC4CC4)ccc4c3OCO4)ncnc2c1C(=O)N[C@H]1CC[C@@H](NC(=O)CO)CC1 [Example F5, 4-[5-(Cyclopropylmethoxy)-1,3-benzodioxol-4-yl]-N-[cis-4-(glycoloylamino)cyclohexyl]-6-methyl-5H-pyrrolo[3,2-d]pyrimidine-7-carboxamide]
4 | < 1 nM | Cc1cc(-c2ncnc3c(C(=O)N[C@H]4CC[C@@H](NC(=O)CO)CC4)c(C)[nH]c23)c(OCC2CC2)cc1F [Example F79, 4-[2-(Cyclopropylmethoxy)-4-fluoro-5-methylphenyl]-N-{cis-4-[(hydroxyacetyl)amino]cyclohexyl}-6-methyl-5H-pyrrolo[3,2-d]pyrimidine-7-carboxamide]
5 | < 1 nM | COc1cc(-c2ncnc3c(C(=O)N[C@@H]4CCN(C(=O)[C@H](C)O)C4)c(C)[nH]c23)c(OCC2CC2)cc1F [Example F112, 4-[2-(Cyclopropylmethoxy)-4-fluoro-5-methoxyphenyl]-N-{(3R)-1-[(2S)-2-hydroxypropanoyl]pyrrolidin-3-yl}-6-methyl-5H-pyrrolo[3,2-d]pyrimidine-7-carboxamide]
6 | < 1 nM | COc1cc(-c2nc(C)nc3c(C(=O)NC4CCN(C(=O)[C@H](C)O)CC4)c(C)[nH]c23)c(OCC2CC2)cc1F [Example F110, 4-[2-(Cyclopropylmethoxy)-4-fluoro-5-methoxyphenyl]-N-{1-[(2S)-2-hydroxypropanoyl]piperidin-4-yl}-2,6-dimethyl-5H-pyrrolo[3,2-d]pyrimidine-7-carboxamide]
7 | 1 to 10 nM | Cc1[nH]c2c(-c3cc(F)ccc3OCC3CC3)ncnc2c1C(=O)N[C@@H]1CCN(C(=O)CO)C1 [Example F28, 4-[2-(Cyclopropylmethoxy)-5-fluorophenyl]-N-[(3R)-1-(hydroxyacetyl)pyrrolidin-3-yl]-6-methyl-5H-pyrrolo[3,2-d]pyrimidine-7-carboxamide]
8 | < 1 nM | COc1ccc(OCC2CC2)c(-c2ncnc3c(C(=O)NC4CCN(C(=O)C(C)O)CC4O)c(C)[nH]c23)c1 (mixture of isomers) [Example F50, Diastereomeric mixture of 4-[2-(Cyclopropylmethoxy)-5-methoxyphenyl]-N{(3R,4R)-3-hydroxy-1-[(2S)-2-hydroxypropanoyl]piperidin-4-yl}-6-methyl-5H-pyrrolo[3,2-d]pyrimidine-7-carboxamide and 4-[2-(Cyclopropylmethoxy)-5-methoxyphenyl]-N-{(3S,4S)-3-hydroxy-1-[(2S)-2-hydroxypropanoyl]piperidin-4-yl}-6-methyl-5H-pyrrolo[3,2-d]pyrimidine-7-carboxamide]

The next lines start with the molecule.

Row | Structure (SMILES) | IC50
9 | COc1cc(-c2ncnc3c(C(=O)N[C@@H]4CN(C(C)=O)C[C@H]4O)c(C)[nH]c23)c(OCC2CC2)cc1F (relative stereo) [Example E183, N-[(3R*,4R*)-1-Acetyl-4-hydroxypyrrolidin-3-yl]-4-[2-(cyclopropylmethoxy)-4-fluoro-5-methoxyphenyl]-6-methyl-5H-pyrrolo[3,2-d]pyrimidine-7-carboxamide] | < 1 nM
10 | CCC(=O)N[C@H]1CC[C@H](NC(=O)c2c(C)[nH]c3c(-c4ccc(F)cc4OCC4CC4)ncnc23)CC1 [Example E23, 4-[2-(Cyclopropylmethoxy)-4-fluorophenyl]-6-methyl-N-[trans-4-(propionylamino)cyclohexyl]-5H-pyrrolo[3,2-d]pyrimidine-7-carboxamide] | < 1 nM
11 | CCOc1ccc(F)cc1-c1ncnc2c(C(=O)NC3CCN(C(=O)CC)CC3)c(C)[nH]c12 [Example E53, 4-(2-Ethoxy-5-fluorophenyl)-6-methyl-N-(1-propanoylpiperidin-4-yl)-5H-pyrrolo[3,2-d]pyrimidine-7-carboxamide] | 1 to 10 nM
12 | COCC(=O)N1CC[C@@H](NC(=O)c2c(C)[nH]c3c(-c4ccc(F)cc4OCC4CC4)ncnc23)C1 [Example E30, 4-[2-(Cyclopropylmethoxy)-4-fluorophenyl]-N-[(3R)-1-(methoxyacetyl)pyrrolidin-3-yl]-6-methyl-5H-pyrrolo[3,2-d]pyrimidine-7-carboxamide] | < 1 nM
13 | COc1cc(-c2ncnc3c(C(=O)N[C@H]4CC[C@@H](NC(C)=O)CC4)c(C)[nH]c23)c(OCC2CC2)cc1F [Example E110, N-(cis-4-Acetamidocyclohexyl)-4-[2-(cyclopropylmethoxy)-4-fluoro-5-methoxyphenyl]-6-methyl-5H-pyrrolo[3,2-d]pyrimidine-7-carboxamide] | < 1 nM
14 | COCC(=O)N[C@H]1CC[C@@H](NC(=O)c2c(C)[nH]c3c(-c4c(OCC5CC5)ccc5c4OCO5)ncnc23)CC1 [Example E11, 4-[5-(Cyclopropylmethoxy)-1,3-benzodioxol-4-yl]-N-{cis-4-[(methoxyacetyl)amino]cyclohexyl}-6-methyl-5H-pyrrolo[3,2-d]pyrimidine-7-carboxamide] | < 1 nM
15 | COCC(=O)N[C@H]1CC[C@H](NC(=O)c2c(C)[nH]c3c(-c4ccc(F)cc4OCC4CC4)ncnc23)CC1 [Example E24, 4-[2-(Cyclopropylmethoxy)-4-fluorophenyl]-N-{trans-4-[(methoxyacetyl)amino]cyclohexyl}-6-methyl-5H-pyrrolo[3,2-d]pyrimidine-7-carboxamide] | < 1 nM
16 | COc1ccc(-c2ncnc3c(C(=O)N[C@H]4CC[C@H](NC(C)=O)CC4)c(C)[nH]c23)c(OCC2CC2)c1 [Example E58, N-(trans-4-acetamidocyclohexyl)-4-[2-(cyclopropylmethoxy)-4-methoxyphenyl]-6-methyl-5H-pyrrolo[3,2-d]pyrimidine-7-carboxamide] | < 1 nM
17 | COCC(=O)N[C@H]1CC[C@@H](NC(=O)c2c(C)[nH]c3c(-c4cc(C(C)C)ccc4OCC4CC4)ncnc23)CC1 [Example E162, 4-[2-(Cyclopropylmethoxy)-5-(propan-2-yl)phenyl]-N-{cis-4-[(methoxyacetyl)amino]cyclohexyl}-6-methyl-5H-pyrrolo[3,2-d]pyrimidine-7-carboxamide] | 1 to 10 nM
18 | COCC(=O)N1CCC(NC(=O)c2c(C)[nH]c3c(-c4cc(OC)c(F)cc4OCC4CC4)ncnc23)CC1 [Example E104, 4-[2-(Cyclopropylmethoxy)-4-fluoro-5-methoxyphenyl]-N-[1-(methoxyacetyl)piperidin-4-yl]-6-methyl-5H-pyrrolo[3,2-d]pyrimidine-7-carboxamide] | < 1 nM
19 | COCC(=O)N1CC[C@@H](NC(=O)c2c(C)[nH]c3c(-c4cc(F)c(OC)cc4OCC4CC4)ncnc23)C1 [Example E188, 4-[2-(Cyclopropylmethoxy)-5-fluoro-4-methoxyphenyl]-N-[(3R)-1-(methoxyacetyl)pyrrolidin-3-yl]-6-methyl-5H-pyrrolo[3,2-d]pyrimidine-7-carboxamide] | < 1 nM
20 | COc1cc(OCC2CC2)c(-c2ncnc3c(C(=O)N[C@H]4CC[C@@H](NC(C)=O)CC4)c(C)[nH]c23)cc1F [Example E138, N-(cis-4-Acetamidocyclohexyl)-4-[2-(cyclopropylmethoxy)-5-fluoro-4-methoxyphenyl]-6-methyl-5H-pyrrolo[3,2-d]pyrimidine-7-carboxamide] | < 1 nM
21 | COCC(=O)N[C@H]1CC[C@H](NC(=O)c2c(C)[nH]c3c(-c4cc(OC)c(F)cc4OCC4CC4)ncnc23)CC1 [Example E108, 4-[2-(Cyclopropylmethoxy)-4-fluoro-5-methoxyphenyl]-N-{trans-4-[(methoxyacetyl)amino]cyclohexyl}-6-methyl-5H-pyrrolo[3,2-d]pyrimidine-7-carboxamide] | < 1 nM
22 | COc1cc(OCC2CC2)c(-c2ncnc3c(C(=O)N[C@@H]4CCN(C(C)=O)C[C@H]4O)c(C)[nH]c23)cc1F (relative stereo) [Example E142, N-[(3R*,4R*)-1-Acetyl-3-hydroxypiperidin-4-yl]-4-[2-(cyclopropylmethoxy)-5-fluoro-4-methoxyphenyl]-6-methyl-5H-pyrrolo[3,2-d]pyrimidine-7-carboxamide] | < 1 nM
23 | CC(=O)N1CC[C@@H](NC(=O)c2c(C)[nH]c3c(-c4cc(F)ccc4OCC4CC4)ncnc23)[C@H](O)C1 (relative stereo) [Example E49, N-[(3R*,4R*)-1-acetyl-3-hydroxypiperidin-4-yl]-4-[2-(cyclopropylmethoxy)-5-fluorophenyl]-6-methyl-5H-pyrrolo[3,2-d]pyrimidine-7-carboxamide] | 1 to 10 nM
24 | CC(=O)N1CCC(NC(=O)c2c(C)[nH]c3c(-c4cc(C)c(F)cc4OCC4CC4)ncnc23)CC1 [Example E119, N-(1-Acetylpiperidin-4-yl)-4-[2-(cyclopropylmethoxy)-4-fluoro-5-methylphenyl]-6-methyl-5H-pyrrolo[3,2-d]pyrimidine-7-carboxamide] | < 1 nM
25 | COCC(=O)N[C@H]1CC[C@@H](NC(=O)c2c(C)[nH]c3c(-c4cc(OC)c(F)cc4OCC4CC4)ncnc23)CC1 [Example E112, 4-[2-(Cyclopropylmethoxy)-4-fluoro-5-methoxyphenyl]-N-{cis-4-[(methoxyacetyl)amino]cyclohexyl}-6-methyl-5H-pyrrolo[3,2-d]pyrimidine-7-carboxamide] | < 1 nM
